Assay results taken from PubChem BioAssay AID686920 (Broad Institute, 2013).

Test system: A673 NR0B1-luciferase reporter, viability-normalised luminescence
Test: NR0B1 reporter signal reduction in A673 cells – cell-based, luciferase luminescence, cherry-pick, EWS/Fli inhibitor project, dose response (AID 686920)

Row | SMILES | AC35
1 | O=C(O)c1ccc(N/N=C/c2ccc3nccnc3c2)cc1 | 0.993 µM
2 | COc1cc(/C=C/C(=O)CC(=O)/C=C/c2ccc(O)c(OC)c2)ccc1O | 7.91 µM
3 | COC(=O)C1=C(C)N(Cc2ccccc2C(F)(F)F)C(=NCc2ccc(OC)cc2)NC1c1ccc(C(F)(F)F)cc1 (stereo unspecified) | 29.9 µM
4 | C[C@@H]1CN([C@H](C)CO)C(=O)c2cc(C#CCc3ccccc3)cnc2O[C@@H]1CN(C)Cc1cccc(F)c1 | 46.1 µM
5 | CCn1c(C)cc(C(=O)CN2C(=O)c3ccccc3S2(=O)=O)c1C | 1.23 µM
6 | BrC(=C\c1ccccc1)/C=N/n1cnnc1 | 7.17 µM
7 | Cc1c(Cc2ccc3c(c2)OCO3)sc(NC(=O)C(C)(C)C)c1C#N | 9.84 µM
8 | N#C[C@H]1[C@H](c2ccc(C#Cc3ccccc3F)cc2)[C@@H](CO)N1C(=O)C1CCCCC1 | 19.5 µM
9 | COc1ccc(OC)c(-c2nnc3n2N=C(c2ccc(OC)c(OC4CCCC4)c2)CS3)c1 | 12.6 µM
10 | CCCC[C@@H]1Cc2[nH][nH]c(=O)c2[C@H](c2ccc3ccccc3c2)O1 | 11.8 µM
11 | COC1C(O)C(C)OC(OC2CCC3(C)C(CCC4C3C(O)CC3(C)C(C5=CC(=O)OC5)CCC43O)C2)C1O (stereo unspecified) | 0.183 µM
12 | Cc1ccc(S(=O)(=O)N(C)C[C@@H]2Oc3cc(C#Cc4ccncc4)ccc3S(=O)(=O)N([C@@H](C)CO)C[C@H]2C)cc1 | 9.88 µM
13 | COc1ccc(S(=O)(=O)N2CC[C@@H]3[C@H](CO)Nc4ccc(-c5ccc(C#N)cc5)cc4[C@@H]32)cc1 | 4.3 µM
14 | C[C@H](CO)N1C[C@H](C)[C@H](CN(C)Cc2ccc(C(=O)Nc3ccccc3N)cc2)Oc2ccc(N(C)C)cc2C1=O | 11.7 µM
15 | Cc1ccc(/C=N/Nc2ccc3ccccc3n2)o1 | 4.21 µM
16 | Cc1c(-c2nc(-c3ccc(C(C)(C)C)cc3)no2)n(C)oc1=O | 35.5 µM
17 | C[C@H]1CN([C@@H](C)CO)C(=O)Cc2cc(NC(=O)C3CC3)ccc2O[C@H]1CN(C)S(=O)(=O)c1ccc(Cl)cc1 | 16.1 µM
18 | COc1ccccc1-c1ccc(OCCCN2CCC(C(O)(c3ccccc3)c3ccccc3)CC2)cc1 | 13.3 µM
19 | O=C1c2ccccc2C(=O)c2cc(N3CCCCC3)ccc21 | 2.65 µM
20 | Cc1ccc(OCCNC(=O)c2cccc(S(=O)(=O)NCc3ccccc3)c2)cc1 | 3.98 µM
21 | Cc1nc2cc(-c3ccc(Cl)cc3)nn2c(C)c1CCC(=O)NC(C)c1ccc2c(c1)OCCO2 (stereo unspecified) | 0.847 µM
22 | Oc1[nH]c2ccc(Br)cc2c1N=NC(=S)N1CCOCC1 | 26.5 µM

Row | SMILES | AC35
23 | CC1=NC(=O)C(N=Nc2cccc(C(=O)O)c2)N1c1ccccc1 (stereo unspecified) | 6.99 µM
24 | CN(C)CC1CCC/C(=C\c2ccc(OC(=O)c3ccc(Cl)cc3)cc2)C1=O (stereo unspecified) | 5.76 µM
25 | C[C@H](CO)N1C[C@H](C)[C@H](CN(C)Cc2ccc(C(F)(F)F)cc2)Oc2c(NS(=O)(=O)c3ccc(Cl)cc3)cccc2C1=O | 43.4 µM
26 | COc1ccc(C2=NNC(=Nc3cc(S(=O)(=O)N(C)C)ccc3C)SC2)c(OC)c1 | 9.53 µM
27 | C=CC[n+]1c(-c2ccc(C)cc2)csc1Nc1ccc(NC(C)=O)cc1 | 15.6 µM
28 | C[C@@H]1CCCCO[C@H](CN(C)Cc2ccc(C(=O)Nc3ccccc3N)cc2)[C@@H](C)CN([C@H](C)CO)C(=O)c2cc(NS(=O)(=O)c3ccc(Cl)cc3)ccc2O1 | 5.04 µM
29 | Nc1nc2cc3c(cc2cc1C(=O)NCCc1c[nH]c2ccccc12)OCO3 | 4.31 µM
30 | CC1=NN(c2ccccc2)C(=O)/C1=C\C=C\c1ccccc1 | 6.98 µM
31 | COC(=O)C[C@@H]1CC[C@@H]2[C@H](COc3ccc(NC(=O)c4ccc(F)c(F)c4)cc3C(=O)N2C)O1 | 64.7 µM
32 | CN1C/C(=C/c2ccsc2)C(=O)/C(=C/c2ccsc2)C1 | 9.82 µM
33 | C[C@@H]1CN([C@H](C)CO)C(=O)Cc2cc(NC(=O)CCCCCC(=O)Nc3ccccc3N)ccc2O[C@@H]1CN(C)CC1CCCCC1 | 7.74 µM
34 | CC(=O)Nc1ccc(S(=O)(=O)Nc2ccc(N3CCCCC3)cc2)cc1 | 8.66 µM
35 | Cc1c(Cl)cccc1NC(=O)CCC(=O)N/N=C/c1ccc[nH]1 | 4.78 µM
36 | COC(=O)COc1ccc(-c2nccc(-c3ccccn3)n2)cc1 | 1.5 µM
37 | C[C@@H]1O[C@@H](O[C@H]2C[C@@H](O)[C@]3(CO)[C@@H]4C(CC[C@]3(O)C2)[C@@]2(O)CC[C@H](C3COC(=O)C3)[C@@]2(C)C[C@H]4O)[C@H](O)[C@H](O)[C@H]1O (stereo partly specified) | 1.97 µM
38 | COc1ccc(-c2cnc3c(NC=O)cc(-c4ccccc4OC)cn23)cc1OC | 0.065 µM
39 | CN(CCO)c1ccc(/C=N/Nc2nncc3ccccc23)cc1 | 5.2 µM
40 | CCCCCCCN(c1ccccc1)[C@@H]1C[C@H]2CCCC(=O)N3CC[C@@H](C1)[C@@H]23 | 11.8 µM
41 | OCC1OC(n2ccc3c2ncn2ncnc32)C(O)C1O (stereo unspecified) | 1.01 µM
42 | O=C(O)c1ccc(N/N=C/c2ccc3c(c2)OCO3)cc1 | 0.644 µM
43 | O=C(NC(c1ccc(F)cc1)c1ccc2ccccc2n1)C1CCN(Cc2cccc(C(F)(F)F)c2)CC1 (stereo unspecified) | 7.77 µM
44 | CC(C)(C)c1ccc(Oc2ccc(NC(=O)c3ccccc3C(=O)O)cn2)cc1 | 5.78 µM

Row | SMILES | AC35
45 | CCOC(=O)C1CCCCN1C(=O)CCc1c(C)nc2cc(-c3ccccc3)nn2c1C (stereo unspecified) | 1.16 µM
46 | CC(C)N1C/C(=C/c2cccnc2)C(=O)/C(=C/c2cccnc2)C1 | 10.8 µM
47 | COc1cc(OC)cc(-c2cc3nc(C)c(CCC(=O)O)c(C)n3n2)c1 | 0.243 µM
48 | OC[C@H]1[C@@H](c2ccc(C#CC3CCCC3)cc2)[C@@H]2CN(CCC(F)(F)F)CCCCN12 | 9.24 µM
49 | C[C@@H]1CN([C@H](C)CO)C(=O)c2cc(NS(=O)(=O)c3ccc(Cl)cc3)ccc2O[C@@H]1CN(C)Cc1ccc(Cl)c(Cl)c1 | 29.1 µM
50 | O=C(Nc1ccc(Br)cc1)c1ccc(F)c(S(=O)(=O)N2CCN(c3ccccn3)CC2)c1 | 7.79 µM
51 | COc1cc2c(OC(C)=O)c3c(c(-c4ccc5c(c4)OCO5)c2cc1OC)C(=O)OC3 | 2.34 µM
52 | C[C@]12CCC3C(CCC4=CC(O)CC[C@@]43/C=N/O)C1(O)CCC2C1=CC(=O)OC1 (stereo partly specified) | 0.529 µM
53 | O=C1NC(=O)N(CCc2ccc(F)cc2)C(=O)/C1=C/C=C/c1ccccc1 | 2.66 µM
54 | CCCCNC1=CC(=O)C(=O)c2ccccc21 | 6.17 µM
55 | C=C1C(=O)OC2C1CCC(C)C1(O)C=CC(=O)C21C (stereo unspecified) | 11.5 µM
56 | O=c1[nH]c(=O)n([C@H]2C[C@H](O)[C@@H](CO)O2)cc1C(F)(F)F | 3.33 µM
57 | CCc1cnc(N2[C@H](C#N)[C@H](c3ccc(C#Cc4ccccc4F)cc3)[C@H]2CO)s1 | 9.23 µM
58 | O=C(CCCN1C(=O)/C(=C/c2ccccc2Cl)SC1=S)NNC(=O)c1ccc(Cl)cc1Cl | 3.4 µM
59 | O=C(Nc1ccccc1F)N1CCCCN2[C@H](CO)[C@H](c3ccc(/C=C/c4ccccc4)cc3)[C@H]2C1 | 14 µM
60 | Cc1cccc(NC(=O)CN2CCN(C(=O)CNC(=O)c3ccc(-c4ccccc4)cc3)CC2)c1C | 8.14 µM
61 | CC(=O)OC1CC(OC2C(O)CC(OC3C(O)CC(OC4CCC5(C)C(CCC6C5CCC5(C)C(C7=CC(=O)OC7)C(O)CC65O)C4)OC3C)OC2C)OC(C)C1OC1OC(CO)C(O)C(O)C1O (stereo unspecified) | 0.812 µM
62 | COc1cc2oc3cc(C#Cc4ccc(N)cc4)ccc3c(=O)c2cc1OC | 10.3 µM
63 | C[C@H](CO)N1C[C@H](C)[C@H](CN(C)Cc2ccc(Oc3ccccc3)cc2)Oc2ccc(NC(=O)CCCCCC(=O)Nc3ccccc3N)cc2CC1=O | 4.15 µM
64 | N#C[C@@H]1[C@H](c2ccc(C#Cc3ccc(F)cc3)cc2)[C@@H](CO)N1C(=O)Nc1ccc(F)cc1 | 5.54 µM
65 | O=C1NC(=S)NC(=O)C1=Cc1cccn1-c1ccc(O)cc1 | 19.9 µM
66 | COc1ccc(NC(=O)N2CCCCN3[C@@H](CO)[C@H](c4ccc(C5=CCCCC5)cc4)[C@@H]3C2)cc1 | 15.8 µM
